Source: PubChem BioAssay (NCI)
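Protocol summary: plate cells (96-well), add compound at 5 concentrations, incubate 48 h, interpolate endpoints linearly. The concentration for full growth arrest is given as TGI.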

How the values were obtained:
Test in all cases: NCI tumour cell line growth inhibition, 48 h
[1] = tested on: MOLT-4 leukemia
[2] = tested on: SK-MEL-5 melanoma
[3] = tested on: HCC-2998 colon
[4] = tested on: IGROV1 ovarian
[5] = tested on: EKVX NSCLC
[6] = tested on: HT29 colon
[7] = tested on: UACC-62 melanoma
[8] = tested on: NCI-H522 lung
[9] = tested on: LOX IMVI melanoma
[10] = tested on: SW-620 colon
[11] = tested on: HCT-15 colon
[12] = tested on: CCRF-CEM leukemia
[13] = tested on: SF-295 CNS
[14] = tested on: HOP-92 NSCLC
[15] = tested on: RPMI-8226 leukemia
[16] = tested on: NCI-H226 lung

For `CN1C(=O)C(c2c[nH]c3ccccc23)N(C)C(=O)C1c1c[nH]c2ccccc12` (stereo unspecified), the TGI [1] was over 100 µM, the TGI [2] was over 100 µM and the TGI [3] was over 100 µM. It also gave a TGI [4] of over 100 µM, a TGI [5] of over 100 µM and a TGI [6] of over 100 µM. It also gave a TGI [7] of over 100 µM, a TGI [8] of over 100 µM and a TGI [9] of over 100 µM. The TGI [10] was over 100 µM, the TGI [11] was over 100 µM and the TGI [12] was over 100 µM. For the same molecule, the TGI [13] was over 100 µM and the TGI [14] was over 100 µM.

`Cc1ccc(N(C(=O)Nc2ccc(F)c(Cl)c2)C2=NCC(C)S2)cc1` (stereo unspecified) showed a TGI [1] of over 100 µM, a TGI [2] of 41 µM and a TGI [4] of over 100 µM. For the same molecule, the TGI [5] was over 100 µM, the TGI [6] was over 100 µM and the TGI [9] was over 100 µM. The TGI [10] was over 100 µM, the TGI [11] was over 100 µM and the TGI [12] was over 100 µM. It also gave a TGI [13] of over 100 µM.

`CC(C)=c1sc(=C(C)C)c2c1=NC(C)(C)N=2` showed a TGI [1] of over 100 µM, a TGI [2] of over 100 µM and a TGI [3] of over 100 µM. For the same molecule, the TGI [4] was over 100 µM, the TGI [5] was over 100 µM and the TGI [6] was over 100 µM. It also gave a TGI [7] of over 100 µM, a TGI [8] of over 100 µM and a TGI [9] of over 100 µM. For the same molecule, the TGI [10] was over 100 µM, the TGI [11] was over 100 µM and the TGI [15] was over 100 µM. For the same molecule, the TGI [12] was over 100 µM and the TGI [13] was over 100 µM.

`Cc1ccc(/C=C2\CN(C)CC3C2=NN(c2ccccc2)C3c2ccc(C)cc2)cc1` (stereo unspecified) showed a TGI [1] of over 100 µM, a TGI [2] of over 100 µM and a TGI [3] of over 100 µM. It also gave a TGI [4] of over 100 µM, a TGI [5] of over 100 µM and a TGI [6] of over 100 µM. The TGI [7] was over 100 µM, the TGI [8] was over 100 µM and the TGI [9] was over 100 µM. The TGI [16] was over 100 µM, the TGI [10] was over 100 µM and the TGI [11] was over 100 µM. For the same molecule, the TGI [12] was 95.7 µM, the TGI [13] was over 100 µM and the TGI [14] was over 100 µM.

Work on `S=C1CSc2c(ccc3ccccc23)N1` yielded a TGI [1] of over 100 µM, a TGI [2] of over 100 µM and a TGI [4] of over 100 µM. It also gave a TGI [5] of over 100 µM, a TGI [6] of over 100 µM and a TGI [7] of over 100 µM. For the same molecule, the TGI [8] was over 100 µM, the TGI [9] was over 100 µM and the TGI [16] was over 100 µM. The TGI [11] was over 100 µM, the TGI [15] was over 100 µM and the TGI [12] was over 100 µM. The TGI [13] was over 100 µM.

In the case of `NC(=O)C1Cc2cc3c(cc21)OCO3` (stereo unspecified), the TGI [2] was over 100 µM, the TGI [3] was over 100 µM and the TGI [4] was over 100 µM. It also gave a TGI [5] of over 100 µM, a TGI [6] of over 100 µM and a TGI [7] of over 100 µM. The TGI [8] was over 100 µM, the TGI [9] was over 100 µM and the TGI [16] was over 100 µM. It also gave a TGI [11] of over 100 µM and a TGI [13] of over 100 µM.

For `CN(C(=O)C1CCCCCC1=O)c1ccccc1Cl` (stereo unspecified), the TGI [1] was over 100 µM, the TGI [2] was over 100 µM and the TGI [4] was over 100 µM. The TGI [5] was over 100 µM, the TGI [6] was over 100 µM and the TGI [8] was over 100 µM. For the same molecule, the TGI [9] was over 100 µM, the TGI [16] was over 100 µM and the TGI [10] was over 100 µM. It also gave a TGI [11] of over 100 µM, a TGI [15] of over 100 µM and a TGI [13] of over 100 µM. For the same molecule, the TGI [14] was over 100 µM.

With `COc1cccc(-c2nc3ccccc3c(=O)[nH]2)c1OC` the TGI [1] was over 100 µM, the TGI [2] was over 100 µM and the TGI [3] was over 100 µM. It also gave a TGI [4] of over 100 µM, a TGI [5] of over 100 µM and a TGI [6] of over 100 µM. For the same molecule, the TGI [7] was over 100 µM, the TGI [16] was over 100 µM and the TGI [10] was over 100 µM. It also gave a TGI [11] of over 100 µM, a TGI [15] of 49.4 µM and a TGI [12] of over 100 µM. For the same molecule, the TGI [13] was over 100 µM.

In the case of `NC(CCC(=O)NC(CSC(=O)N(O)c1ccccc1)C(=O)NCC(=O)O)C(=O)O` (stereo unspecified), the TGI [1] was over 1000 µM, the TGI [2] was over 1000 µM and the TGI [3] was over 1000 µM. For the same molecule, the TGI [4] was over 1000 µM, the TGI [5] was over 1000 µM and the TGI [6] was over 1000 µM. For the same molecule, the TGI [7] was over 1000 µM, the TGI [8] was over 1000 µM and the TGI [9] was over 1000 µM. For the same molecule, the TGI [16] was over 1000 µM, the TGI [10] was over 1000 µM and the TGI [11] was over 1000 µM. The TGI [12] was over 1000 µM, the TGI [13] was over 1000 µM and the TGI [14] was over 1000 µM.

With `CC(C)(C)OC(=O)N1CCC2(C)CC(=O)CC=C12` (stereo unspecified) the TGI [1] was over 100 µM, the TGI [2] was over 100 µM and the TGI [3] was over 100 µM. For the same molecule, the TGI [4] was over 100 µM, the TGI [5] was over 100 µM and the TGI [6] was over 100 µM. It also gave a TGI [7] of over 100 µM, a TGI [8] of over 100 µM and a TGI [9] of over 100 µM. For the same molecule, the TGI [16] was over 100 µM, the TGI [10] was over 100 µM and the TGI [11] was over 100 µM. It also gave a TGI [12] of over 100 µM, a TGI [13] of over 100 µM and a TGI [14] of over 100 µM.

For `CC(C)(C)c1ccc(-n2c3nc(=O)n(-c4ccccc4CO)c(=O)c-3cc3ccccc32)cc1`, the TGI [1] was 57.2 µM, the TGI [2] was over 100 µM and the TGI [3] was over 100 µM. The TGI [4] was over 100 µM, the TGI [5] was over 100 µM and the TGI [6] was 86.8 µM. For the same molecule, the TGI [7] was over 100 µM, the TGI [8] was over 100 µM and the TGI [9] was 37.9 µM. It also gave a TGI [16] of over 100 µM, a TGI [10] of over 100 µM and a TGI [11] of over 100 µM. It also gave a TGI [12] of 66.3 µM, a TGI [13] of over 100 µM and a TGI [14] of 97.7 µM.

`Cc1ccc(C2SC(N)=Nc3c2c(C)nn3C(=O)c2ccccc2O)cc1` (stereo unspecified) gave a TGI [1] of over 10 µM, a TGI [2] of over 10 µM and a TGI [4] of over 10 µM. The TGI [5] was over 10 µM, the TGI [6] was over 10 µM and the TGI [7] was 4.27 µM. For the same molecule, the TGI [9] was over 10 µM, the TGI [16] was over 10 µM and the TGI [10] was over 10 µM. It also gave a TGI [11] of over 10 µM, a TGI [15] of over 10 µM and a TGI [12] of over 10 µM. The TGI [14] was 5.02 µM.
